The assay deals with BDF1 mice, P388 leukemia ip, median survival T/C. Briefly: NCI In Vivo Anticancer Drug Screen. Data for tumor model P388 Leukemia (intraperitoneal) in B6D2F1 (BDF1) mice. To be noted: endpoint: median survival time, higher = longer survival. In a few lines:
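Reported as T/C, where T is the survival measurement in dosed animals and C the same measurement in vehicle controls.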

Setting [1] is: dose: 50.0 mg/kg/injection, schedule: Q04DX003 (ip), vehicle: saline with Tween-80.
[2] abbreviates: dose: 100.0 mg/kg/injection, schedule: Q04DX003 (ip), vehicle: saline with Tween-80.
The mark [3] stands for this setting: dose: 200.0 mg/kg/injection, schedule: Q04DX003 (ip), vehicle: saline with Tween-80.
Setting [4] is: dose: 400.0 mg/kg/injection, schedule: Q04DX003 (ip), vehicle: saline with Tween-80.
Where [5] appears, read: dose: 100.0 mg/kg/injection, schedule: Q01DX009 (ip), vehicle: Klucel (hydroxypropylcellulose) (HPC).
[6] abbreviates: dose: 100.0 mg/kg/injection, schedule: Q04DX003 (ip), vehicle: Klucel (hydroxypropylcellulose) (HPC).
[7] abbreviates: dose: 200.0 mg/kg/injection, schedule: Q04DX003 (ip), vehicle: Klucel (hydroxypropylcellulose) (HPC).
The mark [8] stands for this setting: dose: 100.0 mg/kg/injection, schedule: Q01DX001 (ip), vehicle: saline with Tween-80.
Where [9] appears, read: dose: 200.0 mg/kg/injection, schedule: Q01DX001 (ip), vehicle: saline with Tween-80.
Where [10] appears, read: dose: 6.25 mg/kg/injection, schedule: Q01DX009 (ip), vehicle: saline with Tween-80.
The mark [11] stands for this setting: dose: 12.5 mg/kg/injection, schedule: Q01DX009 (ip), vehicle: saline with Tween-80.
Where [12] appears, read: dose: 25.0 mg/kg/injection, schedule: Q01DX009 (ip), vehicle: saline with Tween-80.
The mark [13] stands for this setting: dose: 100.0 mg/kg/injection, schedule: Q01DX009 (ip), vehicle: saline with Tween-80.
Setting [14] is: dose: 6.25 mg/kg/injection, schedule: Q04DX003 (ip), vehicle: saline.
The mark [15] stands for this setting: dose: 12.5 mg/kg/injection, schedule: Q04DX003 (ip), vehicle: saline.
[16] abbreviates: dose: 400.0 mg/kg/injection, schedule: Q04DX003 (ip), vehicle: Klucel (hydroxypropylcellulose) (HPC).
The mark [17] stands for this setting: dose: 50.0 mg/kg/injection, schedule: Q01DX009 (ip), vehicle: saline with Tween-80.

Values joined by “and” are separate entries in the source; they are usually repeats but may differ in a detail not shown here. Equal entries are not always repeated. Inconclusive results and toxic doses are left out.

Regarding `CN1C(=O)NC2C(CO)OC1C2O` (stereo unspecified), the T/C is, setting by setting: (dose: 100.0 mg/kg/injection, schedule: Q01DX001 (ip), vehicle: saline) 104 % of control; (dose: 200.0 mg/kg/injection, schedule: Q01DX001 (ip), vehicle: saline) 104 % of control; (dose: 400.0 mg/kg/injection, schedule: Q01DX001 (ip), vehicle: saline) 100 % of control.

For `[O-][n+]1ccc(Cl)c2ccsc21`, the T/C runs as follows: under setting [1], 95 % of control; under setting [2], 95 % of control; under setting [3], 90 % of control and 104 % of control; under setting [4], 86 % of control.

`OC[C@@H](O)[C@@H](O)CO`: the T/C (dose: 100.0 mg/kg/injection, schedule: Q01DX010 (ip), vehicle: saline) was 90 % of control and the T/C (dose: 400.0 mg/kg/injection, schedule: Q01DX010 (ip), vehicle: saline) is 110 % of control.

Take `Cc1cc(=O)[nH]c(N/N=C/C(C)C)n1`: the T/C reads like this: (dose: 25.0 mg/kg/injection, schedule: Q01DX009 (ip), vehicle: Klucel (hydroxypropylcellulose) (HPC)) 92 % of control; (dose: 50.0 mg/kg/injection, schedule: Q01DX009 (ip), vehicle: Klucel (hydroxypropylcellulose) (HPC)) 92 % of control; (dose: 50.0 mg/kg/injection, schedule: Q04DX003 (ip), vehicle: Klucel (hydroxypropylcellulose) (HPC)) 96 % of control; under setting [5], 100 % of control; under setting [6], 88 % of control; under setting [7], 88 % of control.

For `C=C/C=C\N(CC)CC`, the T/C by setting is: (dose: 0.78 mg/kg/injection, schedule: Q01DX009 (ip), vehicle: water) 110 % of control; (dose: 1.56 mg/kg/injection, schedule: Q01DX009 (ip), vehicle: water) 109 % of control and 112 % of control; (dose: 3.12 mg/kg/injection, schedule: Q01DX009 (ip), vehicle: water) 107 % of control and 121 % of control; (dose: 6.25 mg/kg/injection, schedule: Q01DX009 (ip), vehicle: water) 89 % of control and 100 % of control and 102 % of control; (dose: 12.5 mg/kg/injection, schedule: Q01DX009 (ip), vehicle: water) 102 % of control and 123 % of control; (dose: 25.0 mg/kg/injection, schedule: Q01DX009 (ip), vehicle: water) 89 % of control and 116 % of control and 118 % of control.

As for `CC(C)NC(=O)c1ccccc1S(=O)c1ccccc1` (stereo unspecified), the T/C under setting [8] is 100 % of control; the T/C under setting [9] is 101 % of control; the T/C (dose: 400.0 mg/kg/injection, schedule: Q01DX001 (ip), vehicle: saline with Tween-80) is 92 % of control.

For the compound `COc1cccc(OC)c1C(c1c(OC)cccc1OC)c1c(OC)cccc1OC`, the T/C runs as follows: under setting [10], 115 % of control; under setting [11], 100 % of control; under setting [12], 109 % of control; (dose: 25.0 mg/kg/injection, schedule: Q04DX003 (ip), vehicle: saline with Tween-80) 104 % of control; under setting [13], 120 % of control; under setting [2], 116 % of control.

For `SC1(S)CN2CCC1CC2`, the T/C was 105 % of control under setting [14]; 105 % of control under setting [15]; 105 % of control (dose: 25.0 mg/kg/injection, schedule: Q04DX003 (ip), vehicle: saline).

As for `Cc1ccc(C)c(Nc2cc(=O)[nH]c(=O)[nH]2)c1`, the T/C by setting is: (dose: 100.0 mg/kg/injection, schedule: Q01DX001 (ip), vehicle: Klucel (hydroxypropylcellulose) (HPC)) 98 % of control; (dose: 200.0 mg/kg/injection, schedule: Q01DX001 (ip), vehicle: Klucel (hydroxypropylcellulose) (HPC)) 103 % of control.

In the case of `O=[N+]([O-])c1ccc(Cl)c2nonc12`, the T/C (dose: 15.0 mg/kg/injection, schedule: Q01DX009 (ip), vehicle: saline with Tween-80) was 103 % of control.

For the compound `O=C(O)/C(Br)=C/c1ccccc1`, the T/C runs as follows: under setting [1], 100 % of control; under setting [2], 109 % of control; under setting [3], 95 % of control.

As for `COc1ccc(C(=O)c2ccccc2)cc1OC`, the T/C is 100 % of control under setting [6] and 100 % of control under setting [16].

In the case of `O=C1C(CCO)SC(=S)N1c1ccccc1` (stereo unspecified), the T/C under setting [17] was 106 % of control; the T/C under setting [13] was 103 % of control; the T/C (dose: 200.0 mg/kg/injection, schedule: Q01DX009 (ip), vehicle: saline with Tween-80) was 102 % of control.

With `OCC(F)(F)C(F)(F)C(F)(F)C(F)F`, the T/C is, setting by setting: under setting [5], 95 % of control; under setting [6], 104 % of control; (dose: 200.0 mg/kg/injection, schedule: Q01DX009 (ip), vehicle: Klucel (hydroxypropylcellulose) (HPC)) 105 % of control; under setting [7], 100 % of control; (dose: 400.0 mg/kg/injection, schedule: Q01DX009 (ip), vehicle: Klucel (hydroxypropylcellulose) (HPC)) 115 % of control; under setting [16], 90 % of control.

On to `CSc1ccc(C(O)CNC(C)C)cc1C` (stereo unspecified), for which the T/C reads like this: (dose: 50.0 mg/kg/injection, schedule: Q01DX009 (ip), vehicle: saline) 100 % of control; (dose: 100.0 mg/kg/injection, schedule: Q01DX009 (ip), vehicle: saline) 100 % of control.

Consider `CC(N)C(=O)NCCN(C)C` (stereo unspecified), for which the T/C is 95 % of control (dose: 50.0 mg/kg/injection, schedule: Q01DX005 (ip), vehicle: saline); 107 % of control (dose: 100.0 mg/kg/injection, schedule: Q01DX005 (ip), vehicle: saline); 99 % of control (dose: 200.0 mg/kg/injection, schedule: Q01DX005 (ip), vehicle: saline).

As for `CC(C)(C)NC1=NCCO1`, the T/C runs as follows: under setting [12], 100 % of control; under setting [17], 100 % of control; under setting [13], 100 % of control.

With `C[N-]c1nnnn1C.[Au+].c1ccc([PH+](c2ccccc2)c2ccccc2)cc1`, the T/C is 108 % of control under setting [10], 108 % of control under setting [11] and 108 % of control under setting [12].

With `Nc1c(O)nc[nH]c1=O`, the T/C reads like this: (dose: 1.56 mg/kg/injection, schedule: Q01DX009 (ip), vehicle: saline) 95 % of control; (dose: 3.13 mg/kg/injection, schedule: Q01DX009 (ip), vehicle: saline) 109 % of control and 100 % of control; (dose: 3.13 mg/kg/injection, schedule: Q04DX003 (ip), vehicle: saline) 95 % of control; (dose: 6.25 mg/kg/injection, schedule: Q01DX009 (ip), vehicle: saline) 100 % of control; under setting [14], 86 % of control and 100 % of control; (dose: 12.5 mg/kg/injection, schedule: Q01DX009 (ip), vehicle: saline) 100 % of control. The T/C under setting [15] is 100 % of control.

Turning to `CC(C)n1cnc2c(Cl)ncnc21`, the T/C is 100 % of control under setting [13], 104 % of control under setting [2], 95 % of control under setting [3] and 90 % of control under setting [4].

For the compound `CSc1nc2n(Cc3c[nH]c(=O)[nH]c3=O)cc(C)cc-2c(=O)n1`, the T/C is 101 % of control under setting [10]; 102 % of control under setting [11]; 95 % of control under setting [12]; 93 % of control under setting [17]; 113 % of control under setting [8]; 106 % of control under setting [9].

Consider `CN1CCC2=C(C1)C(c1ccccc1)c1ccccc12` (stereo unspecified), for which the T/C (dose: 25.0 mg/kg/injection, schedule: Q01DX009 (ip), vehicle: saline) was 106 % of control.

Turning to `CC[C@H]1CN2CCc3cc(OC)c(OC)cc3[C@@H]2C[C@@H]1C[C@H]1NCCc2cc(O)c(OC)cc21`, the T/C is, setting by setting: (dose: 0.25 mg/kg/injection, schedule: Q01DX010 (ip), vehicle: saline) 159 % of control; (dose: 0.5 mg/kg/injection, schedule: Q01DX010 (ip), vehicle: saline) 150 % of control; (dose: 2.0 mg/kg/injection, schedule: Q01DX010 (ip), vehicle: saline) 150 % of control and 190 % of control; (dose: 8.0 mg/kg/injection, schedule: Q01DX010 (ip), vehicle: saline) 95 % of control.

With `O=[N+]([O-])c1cccc2c([N+](=O)[O-])cccc12`, the T/C was 95 % of control (dose: 100.0 mg/kg/injection, schedule: Q01DX001 (ip), vehicle: saline sonified); 100 % of control (dose: 200.0 mg/kg/injection, schedule: Q01DX001 (ip), vehicle: saline sonified); 115 % of control (dose: 400.0 mg/kg/injection, schedule: Q01DX001 (ip), vehicle: saline sonified).
